Our source for the EC50 values is patent US9365523B2, “Imidazolyl amide compounds and uses related thereto” (priority 2011, dated 2016).

The structures appear in SMILES notation. Bounds are passed on as bounds.

Experiment [1] has as its system MeV-Alaska. Description: Viral CPE-reduction assay.
Method: To rapidly pre-screen small libraries of compound analogs for antiviral activity, Vero-SLAM cells were infected with MeV-Alaska in four replicates per compound concentration in a 96-well plate format at an MOI of 0.4 pfu/cell in the presence of the inhibitor analyzed ranging from 75 μM to 293 nM in two-fold dilutions. At 96 hours post-infection, cell monolayers were subjected to crystal violet staining (0.1% crystal violet in 20% ethanol), and the absorbance of dried plates at 560 nm determined. Virus-induced cytopathicity was then calculated according to the formula [% rel. CPE=100-(experimental-minimum)/(maximum-minimum)*100], with minimum referring to infected, vehicle-treated wells and maximum to mock-infected wells.
Experiment [2] relates to MeV-Alaska. Description: Virus yield reduction assay, MeV. In kind it is cell-based, measles virus. To be noted: Measles morbillivirus.
The subject of a further experiment is influenza A/WSN (H1N1). In words: microbe, parasite or virus in culture. In kind it is cell-based. To be noted: read-out: EC50, reduction of virus yield (WSN).
A further experiment relates to HPIV3. In words: Virus yield reduction assay, HPIV3. The format is cell-based, human parainfluenzavirus type 3. To be noted: Human respirovirus 3.
Experiment [3] has as its system MeV-Alaska. In words: Antiviral activity of compound analogs against MeV-Alaska (tables 1-5). The format is cell-based, measles virus.
Where [4] appears, read: Measles morbillivirus, read-out: EC50, suppression of viral cytopathic effect (CPE), CPE.

Consider `Cc1ccc(NC(=O)C(C)Sc2nc3ccccc3n2CC2CCN(Cc3ccc(F)cc3)CC2)c(Cl)c1` (stereo not shown), for which the EC50 (commonly the concentration needed to bring the measured effect to its halfway point) with MeV-Alaska [1] (setting [4]) was 1180 nM.

Regarding `CCN1CCC(Cn2c(SC(C)C(=O)Nc3ccc(C)cc3Cl)nc3ccccc32)CC1` (stereo not shown), the EC50 with MeV-Alaska [1] (setting [4]) is > 75000 nM.

Consider `CCN1CCCC1Cn1c(SC(C)C(=O)Nc2ccc(C)cc2Cl)nc2ccccc21` (stereo not shown) [drawing 215], for which the EC50 in the experiment with MeV-Alaska [1] (read-out: EC50, suppression of viral cytopathic effect (CPE), CPE) worked out at 5520 nM. Take `Cc1ccc(NC(=O)C(C)Sc2nc3ccccc3n2-c2ccc(CCNC3CCN(C(=O)OC(C)(C)C)CC3)cc2)c(Cl)c1` (stereo not shown): the EC50 in the experiment with MeV-Alaska [1] (setting [4]) is 4680 nM.

For the compound `Cc1ccc(NC(=O)C(C)Sc2nc3ccccc3n2C2CCCN(CCO)C2)c(Cl)c1` (stereo not shown), the EC50 with MeV-Alaska [1] (setting [4]) was determined as 10000 nM.

Take `Cc1ccc(NC(=O)C(C)Sc2nc3ccccc3n2CC2CCN(C(C)c3ccc(F)cc3)CC2)c(Cl)c1` (stereo not shown): the EC50 in the experiment with MeV-Alaska [1] (setting [4]) came out at 1170 nM. As to `Cc1ccc(NC(=O)C(C)Sc2nc3ccccc3n2C2CC[N+](C)(C)CC2)c(Cl)c1` (stereo not shown), the EC50 in the experiment on MeV-Alaska [1] (setting [4]) is > 75000 nM.

Regarding `Cc1ccc(NC(=O)C(C)Sc2nc3ccccc3n2-c2ccc(N3CCOCC3)cc2)c(Cl)c1` (stereo not shown) [drawing 232], in the experiment on MeV-Alaska [1] (setting [4]), the EC50 is 300 nM. In the case of `Cc1ccc(NC(=O)C(C)Sc2nc3ccccc3n2C2CCCCC2)c(Cl)c1` (stereo not shown) [drawing 216], the EC50 in the experiment with MeV-Alaska [1] (setting [4]) stood at 290 nM. With `COc1ccc(-n2c(S[C@@H](C)C(=O)Nc3ccc(C)cc3Cl)nc3ccccc32)cc1`, the EC50 with MeV-Alaska [2] (MeV) turned out to be 37.3 nM; in the experiment on influenza A/WSN (H1N1) it was 5 nM; in the experiment on HPIV3 it was 80 nM. In turn, `Cc1ccc(NC(=O)C(C)Sc2nc3ccccc3n2S(=O)(=O)c2ccccc2)c(Cl)c1` (stereo not shown) [Compound 90] gave an EC50 in the experiment with MeV-Alaska [3] (Table 2) of 40 nM. As for `Cc1ccc(NC(=O)C(C)Sc2nc3ccccc3n2-c2ccccc2CN2CCN(C)CC2)c(Cl)c1` (stereo not shown) [drawing 259], the EC50 with MeV-Alaska [2] is 40.8 nM; in the experiment on influenza A/WSN (H1N1), 8 nM. For `Cc1ccc(NC(=O)[C@@H](C)Sc2nc3ccccc3n2-c2ccc(CCN3CCOCC3)cc2)c(Cl)c1`, in that order: 527 nM and 117 nM. As to `Cc1ccc(NC(=O)C(C)Sc2nc3ccccc3n2-c2ccc(OCC(=O)O)cc2)c(Cl)c1` (stereo not shown) [Compound 68], in the experiment with MeV-Alaska [3] (Table 2), the EC50 was > 9300 nM. On to `COc1ccc(-n2c(S(=O)(=O)C(C)C(=O)Nc3ccccc3)nc3ccccc32)cc1` (stereo not shown) [Compound 139], for which the EC50 with MeV-Alaska [3] (Measles morbillivirus, Table 5) was > 75000 nM. `COc1ccc(-n2c(SC(C)C(=O)Nc3ncc(C)s3)nc3ccccc32)cc1` (stereo not shown) [Compound 53]: the EC50 in the experiment on MeV-Alaska [3] (Table 1) was > 150000 nM.

With `Cc1ccc(NC(=O)C(C)Sc2nc3ccccc3n2C2CCCCC2)c(Cl)c1` (stereo not shown) [Compound 88], the EC50 in the experiment on MeV-Alaska [3] (Table 2) was 290 nM. As for `Cc1nnc(NC(=O)C(C)Sc2nc3ccccc3n2-c2ccc(F)cc2)nc1C` (stereo not shown) [Compound 106], it took 23000 nM to reach a half-maximal effect with MeV-Alaska [3] (Table 3) (EC50). In turn, `COc1ccc(-n2c(SC(C)C(=O)Nc3ncc(C(F)(F)F)cc3Cl)nc3ccccc32)cc1` (stereo not shown) [Compound 3] came in with a 50% effective concentration (EC50) with MeV-Alaska [3] (Table 1) of 400 nM. `Cc1ccc(NC(=O)C(C)Sc2nc3ccccc3n2-c2cccc(CCN3CCCCC3)c2)c(Cl)c1` (stereo not shown): the EC50 with MeV-Alaska [1] (setting [4]) was 1520 nM. Consider `Cc1ccc(NC(=O)C(C)Sc2nc3ccccc3n2-c2cccc(CCN(C)C)c2)c(Cl)c1` (stereo not shown), for which, in the experiment on MeV-Alaska [1] (setting [4]), the EC50 turned out to be 1220 nM. As to `Cc1ccc(NC(=O)C(C)Sc2nc3ccccc3n2-c2ccc(C(=O)O)cc2)c(Cl)c1` (stereo not shown) [Compound 97], the EC50 in the experiment on MeV-Alaska [3] (Table 2) is > 75000 nM. As for `COc1ccc(-n2c(S(=O)(=O)C(C)C(=O)Nc3ccc(C)cc3Cl)nc3ccccc32)cc1` (stereo not shown) [Compound 150], in the experiment with MeV-Alaska [3] (Measles morbillivirus, Table 5), the EC50 was > 150000 nM. Consider `Cc1ccc(NC(=O)[C@@H](C)Sc2nc3ccccc3n2-c2ccccc2CN2CCN(C)CC2)c(Cl)c1`, for which the EC50 in the experiment with MeV-Alaska [2] was determined as 466 nM; with influenza A/WSN (H1N1), 120 nM. `COc1ccc(Cn2c(SC(C)C(=O)Nc3ccc(Cl)cc3Cl)nc3ccccc32)cc1` (stereo not shown) [Compound 117]: a half-maximal effect with MeV-Alaska [3] (Table 3) (EC50) was put at 1700 nM.

In the experiment on MeV-Alaska [3] (Measles morbillivirus, Table 5), `COc1ccc(-n2c(SCC(=O)Nc3ncc(Cl)cc3Cl)nc3ccccc32)cc1` [Compound 155] returned an EC50 of 440 nM.

Turning to `Cc1ccc(NC(=O)C(C)Sc2nc3ccccc3n2-c2ccc(OCCO)cc2)c(Cl)c1` (stereo not shown) [Compound 58], a half-maximal response in the experiment with MeV-Alaska [3] (Table 2) (EC50) required 4600 nM. Consider `COc1ccc(Cn2c(NC(C)C(=O)Nc3ccc(C)cc3Cl)nc3ccccc32)cc1` (stereo not shown) [Compound 127], for which, in the experiment on MeV-Alaska [3] (Measles morbillivirus, Table 5), the EC50 is > 75000 nM. As to `Cc1ccc(NC(=O)C(C)Sc2nc3ccccc3n2CCN2CCN(C(C)c3ccc(F)cc3)CC2)c(Cl)c1` (stereo not shown), the EC50 in the experiment with MeV-Alaska [1] (setting [4]) was 2170 nM. `Cc1ccc(NC(=O)C(C)Sc2nc3ccccc3n2N2CCN(C)CC2)c(Cl)c1` (stereo not shown): the EC50 with MeV-Alaska [1] (setting [4]) was > 75000 nM.

Regarding `COc1ccc(-n2c(SC(C)C(=O)Nc3ccc(C)cn3)nc3ccccc32)cc1` (stereo not shown) [Compound 24], in the experiment on MeV-Alaska [3] (Table 1), the EC50 turned out to be 500 nM. `COc1ccc(-n2c(SC(C)C(=O)Nc3ccc(C)c(N)c3)nc3ccccc32)cc1` (stereo not shown) [Compound 16] had an EC50 in the experiment with MeV-Alaska [3] (Table 1) of 2300 nM. The same measure, in the same setting: as for `COc1ccc(-n2c(SC(C)C(=O)Nc3ccc(C)cc3F)nc3ccccc32)cc1` (stereo not shown) [Compound 31], the figure is 200 nM. Consider `COc1ccc(-n2c(SC(C)C(=O)Nc3ccc(C)cc3Cl)nc3ccccc32)cc1` (stereo not shown) [drawing 253], for which the results for the EC50 with influenza A/WSN (H1N1) and with HPIV3 were 13.2 nM and 80 nM, respectively.
